These results are taken from patent US8063071B2 (GlaxoSmithKline, LLC, priority 2007, dated 2011).

Assay [1] deals with human monocyte stimulated cytokine production (TNF-α). Nature of the assay: Monocyte assay (LPS-stimulated TNF-α production). It counts as cell-based. The settings on record: for IC50: 24 h, 200 ng/mL LPS, TNF-α by ELISA. Put shortly:
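Human CD14+ monocytes were purified from blood and plated at 1×10^6 cells/mL in RPMI 1640 with 10% FBS. Compound was added 30 min before stimulation with 200 ng/mL LPS (0.1% DMSO final), followed by 24 hrs at 37 C. Supernatant TNF-α was measured by ELISA, and viability by trypan blue exclusion.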

Assay [2] concerns the target T1, Recombinant human IKKβ (residues 1-737) (Homo sapiens, UniProt O14920).
T1 construct: Recombinant human IKKβ (residues 1-737); GST (C); made in house
T1 sequence (O14920 1-737): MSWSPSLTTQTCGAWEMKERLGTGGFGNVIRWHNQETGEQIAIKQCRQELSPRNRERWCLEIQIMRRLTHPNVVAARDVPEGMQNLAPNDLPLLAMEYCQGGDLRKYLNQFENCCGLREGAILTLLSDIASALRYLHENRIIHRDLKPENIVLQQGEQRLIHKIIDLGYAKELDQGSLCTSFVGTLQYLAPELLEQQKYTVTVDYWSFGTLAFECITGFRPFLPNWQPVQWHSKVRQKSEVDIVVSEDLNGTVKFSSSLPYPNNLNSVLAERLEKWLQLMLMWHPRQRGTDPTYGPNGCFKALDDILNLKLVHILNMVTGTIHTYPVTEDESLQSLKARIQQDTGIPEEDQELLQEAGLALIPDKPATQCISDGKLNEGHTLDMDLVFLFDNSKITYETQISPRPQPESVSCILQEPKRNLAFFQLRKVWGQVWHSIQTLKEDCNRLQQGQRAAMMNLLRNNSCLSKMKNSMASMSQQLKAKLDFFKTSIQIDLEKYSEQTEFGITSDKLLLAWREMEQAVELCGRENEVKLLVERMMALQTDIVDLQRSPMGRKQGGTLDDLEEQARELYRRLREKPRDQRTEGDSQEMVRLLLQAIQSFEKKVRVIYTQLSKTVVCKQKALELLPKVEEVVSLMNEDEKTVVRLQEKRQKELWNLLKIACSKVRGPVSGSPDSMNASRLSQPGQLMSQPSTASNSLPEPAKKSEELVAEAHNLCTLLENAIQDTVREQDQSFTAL
Nature of the assay: IKK2 assay (TR-FRET). The settings on record: ATP 1 μM final, read-out: pIC50 against IKK2 (converted). Format: biochemical. Put shortly: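 Baculovirus-expressed C-terminal GST-tagged IKKβ (0.5-5 nM final) in HEPES pH 7.4, MgCl2, CHAPS, DTT, BSA with 1.7% DMSO; 25 nM GST-IB substrate and 1 μM ATP, 15 min at room temperature. EDTA stop; phospho-Ser32/36 detected by Eu-antibody/APC-anti-GST TR-FRET, 665/620 nm ratio.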

Structures can show the parent of a compound that is named as a salt.

`CCS(=O)(=O)N1CCC(c2c[nH]c3c(C(N)=O)cc(-c4ccc(CN(C)C)cc4)cc23)CC1` [Example 146, 5-{4-[(dimethylamino)methyl]phenyl}-3-[1-(ethylsulfonyl)-4-piperidinyl]-1H-indole-7-carboxamide]: the figures for the IC50 in assay [1] and in assay [2] were > 1 µM and ≤ 10 µM, respectively.

As to `CCN(CC)Cc1ccc(-c2cc(C(N)=O)c3[nH]cc(C4CCN(S(=O)(=O)CC)CC4)c3c2)cc1` [Example 147, 5-{4-[(diethylamino)methyl]phenyl}-3-[1-(ethylsulfonyl)-4-piperidinyl]-1H-indole-7-carboxamide], the IC50 in assay [1] was > 1 µM; in assay [2] it was ≤ 10 µM.

In the case of `CCS(=O)(=O)N1CCC(c2c[nH]c3c(C(N)=O)cc(-c4ccc(CN[C@H](C)CO)cc4)cc23)CC1` [Example 151, 3-[1-(ethylsulfonyl)-4-piperidinyl]-5-[4-({[(1R)-2-hydroxy-1-methylethyl]amino}methyl)phenyl]-1H-indole-7-carboxamide trifluoroacetate], the IC50 in assay [1] was ≤ 1.5 µM; in assay [2], ≤ 10 µM.

For `CCS(=O)(=O)N1CCC(c2c[nH]c3c(C(N)=O)cc(-c4ccc(CNC(CO)CO)cc4)cc23)CC1` [Example 153, 3-[1-(ethylsulfonyl)-4-piperidinyl]-5-[4-({[2-hydroxy-1-(hydroxymethyl)ethyl]amino}methyl)phenyl]-1H-indole-7-carboxamide trifluoroacetate], the IC50 in assay [1] was > 1 µM; in assay [2], ≤ 10 µM.

For the compound `CCCC(C)NCc1cccc(-c2cc(C(N)=O)c3[nH]cc(C4CCN(S(=O)(=O)CC)CC4)c3c2)c1` (stereo not shown) [Example 154, 3-[1-(ethylsulfonyl)-4-piperidinyl]-5-(3-{[(1-methylbutyl)amino]methyl}phenyl)-1H-indole-7-carboxamide trifluoroacetate], the values for the IC50 in assay [1] and in assay [2] were ≤ 1.5 µM and ≤ 10 µM, respectively.

Regarding `CC[C@@H](C)NCc1cccc(-c2cc(C(N)=O)c3[nH]cc(C4CCN(S(=O)(=O)CC)CC4)c3c2)c1` [Example 155, 3-[1-(ethylsulfonyl)-4-piperidinyl]-5-[3-({[(1R)-1-methylpropyl]amino}methyl)phenyl]-1H-indole-7-carboxamide trifluoroacetate], the IC50 in assay [1] was ≤ 1.5 µM; in assay [2], ≤ 10 µM.

`CCS(=O)(=O)N1CCC(c2c[nH]c3c(C(N)=O)cc(-c4cccc(CNCC(C)C)c4)cc23)CC1` [Example 156, 3-[1-(ethylsulfonyl)-4-piperidinyl]-5-(3-{[(2-methylpropyl)amino]methyl}phenyl)-1H-indole-7-carboxamide]: the IC50 is ≤ 1.5 µM in assay [1] and ≤ 10 µM in assay [2].

Turning to `CC[C@H](C)NCc1cccc(-c2cc(C(N)=O)c3[nH]cc(C4CCN(S(=O)(=O)CC)CC4)c3c2)c1` [Example 157, 3-[1-(ethylsulfonyl)-4-piperidinyl]-5-[3-({[(1S)-1-methylpropyl]amino}methyl)phenyl]-1H-indole-7-carboxamide acetate], the results for the IC50 in assay [1] and in assay [2] were ≤ 1.5 µM and ≤ 10 µM, respectively.

For the compound `CCS(=O)(=O)N1CCC(c2c[nH]c3c(C(N)=O)cc(-c4ccc(CNC(=O)C5CC5)cc4)cc23)CC1` [Example 158, 5-(4-{[(cyclopropylcarbonyl)amino]methyl}phenyl)-3-[1-(ethylsulfonyl)-4-piperidinyl]-1H-indole-7-carboxamide], the IC50 in assay [1] is > 1 µM; in assay [2], ≤ 10 µM.

Consider `CCS(=O)(=O)N1CCC(c2c[nH]c3c(C(N)=O)cc(-c4ccc(CNC(=O)C5CCC5)cc4)cc23)CC1` [Example 159, 5-(4-{[(cyclobutylcarbonyl)amino]methyl}phenyl)-3-[1-(ethylsulfonyl)-4-piperidinyl]-1H-indole-7-carboxamide], for which the IC50 in assay [1] is > 1 µM; in assay [2], ≤ 10 µM.

Regarding `CCS(=O)(=O)N1CCC(c2c[nH]c3c(C(N)=O)cc(-c4ccc(CNC(=O)Cc5cccs5)cc4)cc23)CC1` [Example 160, 3-[1-(ethylsulfonyl)-4-piperidinyl]-5-(4-{[(2-thienylacetyl)amino]methyl}phenyl)-1H-indole-7-carboxamide], the IC50 was ≤ 1.5 µM in assay [1] and ≤ 10 µM in assay [2].

As to `CCS(=O)(=O)N1CCC(c2c[nH]c3c(C(N)=O)cc(-c4ccc(CN[C@@H](C)C(C)C)cc4)cc23)CC1` [Example 161, 5-[4-({[(1S)-1,2-dimethylpropyl]amino}methyl)phenyl]-3-[1-(ethylsulfonyl)-4-piperidinyl]-1H-indole-7-carboxamide trifluoroacetate], the IC50 in assay [1] is ≤ 1.5 µM; in assay [2], ≤ 10 µM.

As to `CCS(=O)(=O)N1CCC(c2c[nH]c3c(C(N)=O)cc(-c4cccc(CN[C@H](C)C(C)C)c4)cc23)CC1` [Example 162, 5-[3-({[(1R)-1,2-dimethylpropyl]amino}methyl)phenyl]-3-[1-(ethylsulfonyl)-4-piperidinyl]-1H-indole-7-carboxamide trifluoroacetate], the results for the IC50 in assay [1] and in assay [2] were ≤ 1.5 µM and ≤ 10 µM, respectively.

`CCS(=O)(=O)N1CCC(c2c[nH]c3c(C(N)=O)cc(-c4cccc(N)n4)cc23)CC1` [Example 163, 5-(6-amino-2-pyridinyl)-3-[1-(ethylsulfonyl)-4-piperidinyl]-1H-indole-7-carboxamide trifluoroacetate]: the IC50 in assay [1] is ≤ 1.5 µM; in assay [2] it was ≤ 10 µM.

`CCS(=O)(=O)N1CCC(c2c[nH]c3c(C(N)=O)cc(-c4ccc(N(C)C)cc4)cc23)CC1` [Example 165, 5-[4-(dimethylamino)phenyl]-3-[1-(ethylsulfonyl)-4-piperidinyl]-1H-indole-7-carboxamide]: the IC50 in assay [1] was > 1 µM; in assay [2], ≤ 10 µM.

For `CCS(=O)(=O)N1CCC(c2c[nH]c3c(C(N)=O)cc(-c4cccc(N)c4)cc23)CC1` [Example 166, 5-(3-aminophenyl)-3-[1-(ethylsulfonyl)-4-piperidinyl]-1H-indole-7-carboxamide], the IC50 in assay [1] is ≤ 1.5 µM; in assay [2] it was ≤ 10 µM.

Consider `CCS(=O)(=O)N1CCC(c2c[nH]c3c(C(N)=O)cc(-c4ccc(CN5CCCC5C)s4)cc23)CC1` (stereo not shown) [Example 167, 3-[1-(ethylsulfonyl)-4-piperidinyl]-5-{5-[(2-methyl-1-pyrrolidinyl)methyl]-2-thienyl}-1H-indole-7-carboxamide], for which the IC50 was ≤ 1.5 µM in assay [1] and ≤ 10 µM in assay [2].

For `CCNCc1ccc(-c2cc(C(N)=O)c3[nH]cc(C4CCN(S(=O)(=O)CC)CC4)c3c2)s1` [Example 168, 5-{5-[(ethylamino)methyl]-2-thienyl}-3-[1-(ethylsulfonyl)-4-piperidinyl]-1H-indole-7-carboxamide], the figures for the IC50 in assay [1] and in assay [2] were ≤ 1.5 µM and ≤ 10 µM, respectively.

For the compound `CCS(=O)(=O)N1CCC(c2c[nH]c3c(C(N)=O)cc(-c4ccc(CNC(C)C)s4)cc23)CC1` [Example 169, 3-[1-(ethylsulfonyl)-4-piperidinyl]-5-(5-{[(1-methylethyl)amino]methyl}-2-thienyl)-1H-indole-7-carboxamide], the values for the IC50 in assay [1] and in assay [2] were ≤ 1.5 µM and ≤ 10 µM, respectively.

For the compound `CCS(=O)(=O)N1CCC(c2c[nH]c3c(C(N)=O)cc(-c4ccc(CNC5CC5)s4)cc23)CC1` [Example 170, 5-{5-[(cyclopropylamino)methyl]-2-thienyl}-3-[1-(ethylsulfonyl)-4-piperidinyl]-1H-indole-7-carboxamide], the IC50 was ≤ 1.5 µM in assay [1] and ≤ 10 µM in assay [2].

Consider `CCS(=O)(=O)N1CCC(c2c[nH]c3c(C(N)=O)cc(-c4ccc(CNCC(C)(C)C)s4)cc23)CC1` [Example 171, 5-(5-{[(2,2-dimethylpropyl)amino]methyl}-2-thienyl)-3-[1-(ethylsulfonyl)-4-piperidinyl]-1H-indole-7-carboxamide], for which the IC50 in assay [1] was ≤ 1.5 µM; in assay [2], ≤ 10 µM.

As for `CCS(=O)(=O)N1CCC(c2c[nH]c3c(C(N)=O)cc(-c4ccc(CNCC5CC5)s4)cc23)CC1` [Example 172, 5-(5-{[(cyclopropylmethyl)amino]methyl}-2-thienyl)-3-[1-(ethylsulfonyl)-4-piperidinyl]-1H-indole-7-carboxamide], the results for the IC50 in assay [1] and in assay [2] were ≤ 1.5 µM and ≤ 10 µM, respectively.

On to `CCS(=O)(=O)N1CCC(c2c[nH]c3c(C(N)=O)cc(-c4cncc(CNCCOC)c4)cc23)CC1` [Example 174, 3-[1-(ethylsulfonyl)-4-piperidinyl]-5-[5-({[2-(methyloxy)ethyl]amino}methyl)-3-pyridinyl]-1H-indole-7-carboxamide], for which, in assay [1] (read-out: inhibition at 300 nM in the monocyte assay), the inhibition at 0.3 µM was 0 to 60%. Further, the IC50 in assay [2] is ≤ 10 µM.
